5 compounds from patent US9421211B2, “N,N′-diarylurea compounds and N,N′-diarylthiourea compounds as inhibitors of translation initiation” (President and Fellows of Harvard College, priority 2009, dated 2016) can be followed below.

The subject of series [1] is A549 human lung cancer cells. Description: Cell proliferation SRB assay, A549. The format is cell-based. The following applies: read-out: IC50 (μM), concentration that inhibits cell proliferation by 50%. The method, then: (§1) Reduced availability of the ternary complex causes inhibition of translation initiation and thereby of cell proliferation. […] The effects of N,N′-diarylureas on the proliferation KLN mouse squamous cell carcinoma, CRL-2351 human breast, CRL-2813 human melanoma, A549 human lung and PC-3 human prostate cancer cell lines were tested.
(§2) Cell Growth Assay: Cell Growth was Measured by the SRB Assay.
On the technique in general: Sulforhodamine B stains cellular protein and so reports cell mass.

Series [2] concerns CRL-2351 human breast cancer cells. Description: Cell proliferation SRB assay, CRL-2351. The format is cell-based. As to conditions: Homo sapiens. The method, then: as §1, §2
Series [3] deals with PC-3 human prostate cancer cells. The experiment in a line: Cell proliferation SRB assay, PC-3. The format is cell-based. The following applies: read-out: IC50 (μM), concentration that inhibits cell proliferation by 50%. The method, then:
as §1
To determine if N,N′-diarylureas inhibit cell proliferation by reducing the availability of the ternary complex, the effect of N,N′-diarylureas on proliferation of previously described transgenic PC-3 human prostate cancer cell lines expressing either the non-phosphorylatable eIF2α-S51A mutant or the eIF2α-WT was studied. […] Reducing the expression of HRI, the eIF2α kinase that mediates N,N′-diarylurea induced phosphorylation of eIF2α similarly abrogates the effect of these agents on cell proliferation (FIGS. 15C and 15D).
as §2

Series [4] deals with KLN mouse squamous cell carcinoma cells. Description: Cell proliferation SRB assay, KLN. The series is classed as cell-based. The method, then: as §1, §2
For series [5], the system named is CRL-2813 human melanoma cells. Description: Cell proliferation SRB assay, CRL-2813. The series is classed as cell-based. The method, then:
Reduced availability of the ternary complex causes inhibition of translation initiation and thereby of cell proliferation. […] The effects of N,N′-diarylureas on the proliferation KLN mouse squamous cell carcinoma, CRL-2351 human breast, CRL-2813 human melanoma, A549 human lung and PC-3 human prostate cancer cell lines were tested. […]
as §2

Series [6] can be described thus: In vivo toxicity, seven day administration to mice. The method, then: Five female nude mice each were treated with 200 mg/kg, 100 mg/kg #1781 in 15 μl DMSO or 15 μl DMSO daily for seven days. Mice were observed daily for signs of toxicity and weighed every other day for total of 15 days and then necropsy was performed. The average body of each group is plotted against the time.
To study toxicity effects, mice were treated with various doses of compound #1781 or vehicle.

The subject of a further series is eIF2α. Description: Phosphorylation of eIF2α in cells by Western blot (KLN-tTA/pBISA-DL(ATF-4), PC-3, CRL-2813). The series is classed as cell-based, mouse; human. The following applies: CRL-2813, HRI siRNA. The text has this: The amount of the eIF2.GTP.Met-tRNAi complex can be reduced by phosphorylation of eIF2α, reduced expression of Met-tRNAi, or eIF2α phosphorylation independent reduction in the activity of eIF2B, the eIF2 guanine nucleotide exchange factor. To determine which of these was the case, the effect of active N,N′-diarylureas on the phosphorylation of eIF2α was studied. […] To determine if the phosphorylation of eIF2α was responsible for reduced amount of the ternary complex in the cells treated with N,N′-diarylurea compounds, previously generated PC-3 human prostate cancer cell lines in which expression of endogenous eIF2α was replaced with recombinant wild type (WT) or non-phosphorylatable eIF2α-S51A were utilized.
Western blotting: Cell extracts were separated by SDS-PAGE and probed with anti-phosphoserine-51-eIF2 cc (PS51-eIF2α), anti-total eIF2α-specific antibodies […] (Biosource International, Hopkinton, Mass.), anti-CHOP, or anti β-actin (Santa Cruz Biotechnology, CA) as described.

Series [7] deals with eIF2.GTP.Met-tRNAi ternary complex. The experiment in a line: Ternary complex assay: dual luciferase F-luc/R-luc ratio in KLN-tTA/pBISA-DL(ATF-4) cells (HTS screen, 96-well hit confirmation, dose response). As to conditions: siRNA to PKR, PERK, GCN2; also CRL-2813 cells. The series is classed as cell-based, mouse. The text has this: For assay development, a bi-directional plasmid was designed in which a common promoter/enhancer complex drives the transcription of firefly luciferase (F-luc) ORF fused to the 5′ untranslated region (UTR) of ATF-4, and of the renilla luciferase (R-luc) ORF fused to a 90-nucleotide 5′ UTR derived from the plasmid (FIG. 6A). Because the tetracycline-regulated transactivator ((tTA), required for driving transcription from this vector) is not normally expressed in the mammalian cells, stable KLN cancer cells were constructed that expressed tTA (KLN-tTA).
The KLN-tTA colonies that drove expression of reporter genes from pBISA-DL plasmid were selected by transient transfection and dual luciferase assay. One of these KLN-tTA cell lines was transfected with the pBISA-DL^(ATF-4) expression vector, stable colonies were selected by dual luciferase assay and expanded. To determine if reduced availability of the eIF2.GTP.Met-tRNAi ternary complex increased the translation of firefly luciferase and decreased translation of renilla luciferase, selected KLN-tTA/pBISA-DL^(ATF-4) colonies were treated with thapsigargin (TG) or tunicamycin (TU), two agents known to cause phosphorylation of eIF2α.
This assay was then adapted for high throughput screening in 96 and 384 well plates. This was done by evaluating the cell density, length of exposure to compounds, DMSO tolerance and optimum firefly and renilla substrate. We then challenged these cells with thapsigargin or DMSO. […] Cell-based assays usually have higher variation than homogeneous in vitro assays due to position effect in the plate, and other variables associated with handling of cells and the plates.
Screening was conducted in 384 well white opaque plates (Nalge Nunc), 100 μl volume RPMI+10% fetal bovine serum. Cells were plated at the sub-confluent density of 10,000 cells/well, and allowed to attach for a period of 16-18 hours at 37° C., 5% CO2. Compounds were added as 1 μl of a 1 mM DMSO stock solution for a final screening concentration of […] using low-volume tips for transfer (Molecular Bioproducts). Cells were then incubated in the presence of compound for an additional sixteen hours, again at 37° C., 5% CO2. Following incubation 70 μl of the culture medium was removed from each well to allow for reagent addition and plates were allowed to equilibrate to room temperature for thirty minutes. Firefly luciferase reporter activity was then read by the addition of thirty microliters of Dual Glo Luciferase reagent (Promega), followed by one hour incubation at room temperature to allow for adequate signal buildup. Luminescence counting was conducted on a Microbeta Trilux using a 1 second read time. Renilla luciferase reporter activity was measured following addition of 30 μl Stop and Glo Luciferase reagent (Promega) and incubation identical to the one carried out for the firefly luciferase one.
Compound scores were interpreted as firefly luciferase activity divided by renilla luciferase activity, normalized to the plate's DMSO control. […] All data analysis was conducted using the BioAssay HTS software package (CambridgeSoft).
102,709 compounds in the NCI Open Chemical Repository were then screened using this HTS assay. […] Initial hits were confirmed by repeating the same dual luciferase assay in 96 well plates. Briefly, 20,000 cells/well were plated in triplicate for each concentration (10, 5 and 2.5 μM) of the compounds.

In the next series the test system is CHOP mRNA. Description: Endogenous CHOP mRNA by real-time PCR in KLN-tTA/pBISA-DL(ATF-4) cells. The format is cell-based, mouse. As to conditions: siRNA to HRI, also CRL-2813 cells. The text has this: (§3) For example, reducing amount of the ternary complex increases translation of ATF-4, which results in elevated expression of CHOP mRNA and protein. Therefore, expression of endogenous CHOP mRNA and CHOP protein in KLN-tTA/pBISA-DL^(ATF-4) cells were utilized as secondary assays to validate N,N′-diarylurea compounds as modifiers of the eIF2.GTP.Met-tRNAi ternary complex. […] To rule out the possibility that the activity of N,N′-diarylurea compounds was confined to a single cell type, the effects of these compounds on the ternary complex assay and the expression of CHOP mRNA was assayed in CRL-2351, PC-3, CRL-2813 human breast, prostate, and melanoma cancer cell lines respectively. For the reporter gene assay, the three human cell lines were co-transfected with tTA expression vector and the pBISA-DL^(ATF-4) dual luciferase expression vector shown in FIG. 6. […] The expression of CHOP mRNA was assayed by real time PCR in the same cell lines treated with 5 or 20 μM of each compound.
Real time PCR: For real time PCR, total RNA was extracted with TaqMan Gene Expression Cells-to-Ct™ Kit (Applied Biosystems, Branchburg, N.J.) according to manufacturer's protocol. Contaminating DNA was removed by DNase I treatment. […] To calibrate the results, all the transcripts quantities were normalized to 18S rRNA (was 18S ribosomal RNA-like mRNA in mouse). […]
A general note: In qPCR the cycle at which signal appears reflects the starting amount.

In series [8] the target is T1, HRI (Oryctolagus cuniculus, UniProt P33279).
T1 construct: from tissue; host or cells: rabbit reticulocyte lysate, heme supplemented
T1 sequence (P33279 whole entry): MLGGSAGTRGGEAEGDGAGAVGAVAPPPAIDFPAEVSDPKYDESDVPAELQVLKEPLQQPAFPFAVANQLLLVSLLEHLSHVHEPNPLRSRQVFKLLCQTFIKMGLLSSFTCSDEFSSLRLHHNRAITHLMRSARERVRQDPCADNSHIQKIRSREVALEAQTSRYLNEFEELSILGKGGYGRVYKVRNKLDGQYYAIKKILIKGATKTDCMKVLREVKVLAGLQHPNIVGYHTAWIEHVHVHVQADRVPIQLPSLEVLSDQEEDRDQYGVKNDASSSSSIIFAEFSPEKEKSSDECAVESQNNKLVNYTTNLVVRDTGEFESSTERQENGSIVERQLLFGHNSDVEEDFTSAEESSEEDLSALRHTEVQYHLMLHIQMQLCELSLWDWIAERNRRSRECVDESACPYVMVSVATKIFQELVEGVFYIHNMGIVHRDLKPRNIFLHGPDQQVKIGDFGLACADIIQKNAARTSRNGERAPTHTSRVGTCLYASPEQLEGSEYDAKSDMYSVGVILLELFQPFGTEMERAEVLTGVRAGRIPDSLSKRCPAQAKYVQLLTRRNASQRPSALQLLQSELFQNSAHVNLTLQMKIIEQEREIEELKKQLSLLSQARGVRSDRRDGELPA
The experiment in a line: Phosphorylation of eIF2α in heme-supplemented rabbit reticulocyte lysate. The format is biochemical. The following applies: 30 minutes at 37° C. The method, then:
(§4) FIGS. 14A and 14B depict that N,N′-diarylurea compounds activate HRI in cell free lysates. A and B) Heme supplemented rabbit reticulocyte (a) or in-house prepared human melanoma cancer cell lysates (b) were incubated with the indicated concentration of compound 1781 for 30 minutes at 37° C. and phosphorylation of eIF2α was determined by Western blot analysis.
(§5) Compound #1781 was added to lysates of CRL-2813 cells or heme-supplemented rabbit reticulocytes and phosphorylation of eIF2α by Western blot was determined.

Series [9] concerns the target T2, HRI (Homo sapiens, UniProt Q9BQI3).
T2 construct: endogenous in cells; host or cells: CRL-2813 human melanoma cells (lysate prepared in house)
Description: Phosphorylation of eIF2α in CRL-2813 human melanoma cell lysate. The format is biochemical. The following applies: CRL-2813 cell lysate, 30 minutes at 37° C. The method, then:
as §4, §5

The nature of series [10]: Solubility observed at purification. The series is classed as physicochemical. The following applies: solvents tried for purification. The method, then:
Because it could not be purified, this compound was removed from the structure-activity relationship (SAR) study.
As another non-limiting example, 3,4-dichlorophenylisocyanate (250 mg, 1.330 mmol) and 2-amino-4-hydroxy-6-methylpyrimidine (166 mg, 1.330 mmol) were used following the general procedure E to synthesize 28.

The test system of series [11] is eIF2.GTP.Met-tRNAi ternary complex. Description: ATF-4 assay (firefly/renilla luciferase ratio) in CRL-2351 cell line. The series is classed as cell-based, human.
From the text: as §3
Stable and transient transfection: Cells were seeded at the density of 10^5 in 60-mm (stable transfection) or 10^4 cells per well of 96-well plate (transient transfection) plates and transfected one day later using the Qiagen Transfectamine transfection kit. For selection of stable cell lines, transfected cells were transferred to 100-mm plates and selected with appropriate antibiotics.
Dual luciferase assay: Cells or minced tumors expressing firefly and renilla luciferases were lysed and the extracts assayed with a glow type dual luciferase assay kit, per manufacturer's instruction (Promega Inc., Madison, Wis.).

Setting [12] is: CRL-2351, read-out: IC50 (μM), concentration that inhibits cell proliferation by 50%.
The mark [13] stands for this setting: KLN, read-out: IC50 (μM), concentration that inhibits cell proliferation by 50%.
Where [14] appears, read: CRL2813, CRL-2813, read-out: IC50 (μM), concentration that inhibits cell proliferation by 50%.

Read-outs that look alike come from different tables or passages of the source.

T2 sequence (Q9BQI3 whole entry): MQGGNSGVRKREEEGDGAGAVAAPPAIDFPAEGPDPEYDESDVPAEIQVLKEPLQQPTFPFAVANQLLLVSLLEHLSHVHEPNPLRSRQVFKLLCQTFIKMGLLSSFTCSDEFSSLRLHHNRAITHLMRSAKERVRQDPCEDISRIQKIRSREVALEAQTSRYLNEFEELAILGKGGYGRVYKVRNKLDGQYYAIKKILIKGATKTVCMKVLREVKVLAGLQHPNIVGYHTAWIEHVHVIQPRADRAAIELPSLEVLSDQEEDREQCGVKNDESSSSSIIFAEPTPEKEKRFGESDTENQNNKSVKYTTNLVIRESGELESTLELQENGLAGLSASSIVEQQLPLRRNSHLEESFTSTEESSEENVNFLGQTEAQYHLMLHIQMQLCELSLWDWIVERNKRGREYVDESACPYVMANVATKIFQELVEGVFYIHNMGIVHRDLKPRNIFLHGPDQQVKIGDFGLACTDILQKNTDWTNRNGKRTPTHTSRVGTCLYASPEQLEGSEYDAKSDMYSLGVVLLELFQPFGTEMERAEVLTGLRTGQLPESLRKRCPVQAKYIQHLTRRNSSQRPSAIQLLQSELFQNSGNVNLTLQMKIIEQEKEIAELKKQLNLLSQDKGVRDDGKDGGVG

Regarding `O=C(Nc1ccc(Cl)cc1)Nc1ccc2nonc2c1` [KM094748], the IC50 in [1] was 1.3 µM; in [2] (setting [12]), 0.1 µM; in [3], 1.4 µM; in series [4] (setting [13]), 8.5 µM; in series [5] (setting [14]), 0.3 µM.

As for `O=C(Nc1ccc(Cl)c(Cl)c1)Nc1ccc2nnsc2c1` [Compound 1781], the IC50 in series [1] was determined as 1.2 µM; in series [2] (setting [12]), 3 µM; in series [3] it was 1.1 µM; in series [4] (setting [13]), 17.1 µM; in series [5] (setting [14]), 0.5 µM. For the same compound, the In vivo toxicity entry in series [6] (female nude mice, 100 or 200 mg/kg daily for seven days, observed 15 days) is given as “no apparent in vivo toxicity”.

As to `O=C(Nc1ccc(Cl)c(C(F)(F)F)c1)Nc1ccc2nnsc2c1` [Compound 1780], the IC50 in [1] turned out to be 0.8 µM; in [2] (setting [12]) it was 1.3 µM; in series [3], 0.9 µM; in series [4] (setting [13]) it was 14.8 µM; in series [5] (setting [14]), 0.1 µM.

In the case of `O=C(Nc1ccc(Cl)c(Cl)c1)Nc1ccc2nnsc2c1` [#1781], the “Induction of eIF2α phosphorylation by the compound after silencing of HRI” value in the series on eIF2α is listed as “reduced”. The “Induction of F-luc/R-luc ratio by the compound after knocking down PKR, PERK or GCN2” value in series [7] is given as “no effect”. For the same compound, in the series on CHOP mRNA, the “Induction of CHOP mRNA by the compound after knocking down HRI” value is reported as “abrogated”. Moreover, the “Effect on weight gain or food consumption of mice” value in series [6] (seven consecutive days, up to 200 mg/kg) is recorded as “no adverse effect”. Also, the “Phosphorylation of eIF2α in cell lysates” value at HRI [8] and at HRI [9] was “caused phosphorylation of eIF2α” throughout.

For the compound `O=C(Nc1cc(C(F)(F)F)cc(C(F)(F)F)c1)Nc1ncccc1O` [Compound 28], the IC50 in series [2] (2351 cells, read-out: IC50 (μM) by SRB assay, 2351) is 0.7 µM; in series [4] (KLN cells, read-out: IC50 (μM) by SRB assay, KLN), 15 µM; in series [5] (CRL2813, 2813 cells, read-out: IC50 (μM) by SRB assay, 2813), 0.7 µM. In addition, the Solubility entry in series [10] is “not soluble in any solvent”. For the same compound, the maximal fold induction in [11] (Homo sapiens, read-out: ATF-4 Amax: maximal activity, ratio of firefly over renilla luciferase expression) was 5. In addition, the EC (activity threshold of 5) in series [11] (Homo sapiens, read-out: ATF-4 C[5] (μM): concentration corresponding to an activity threshold of 5) came out at 40 µM. Further, the Cmax in series [11] (read-out: ATF-4 Cmax (μM): concentration corresponding to the maximal activity) amounted to 40 µM.
